Data set [1] can be described thus: Visual solubility evaluation in buffer at fixed concentration of 5 mg/mL. Type of data set: physicochemical. The conditions noted are these: for solubility: aqueous buffer, water solubility determined visually at fixed concentration of 5 mg/mL. As for the experimental part:
This Example illustrates the desirable solubility characteristics of the aminoflavone compounds of the present invention. In Table 2 below, the water solubility of compounds 1a-d of Table 1 are set forth at different pH with a citrate or phosphate buffer, as indicated. Solubility was determined visually at a fixed concentration of 5 mg/mL.

For data set [2], the system named is panel of 60 different human tumor cell lines. Kind of data set: NCI 60 cell-line human tumor screen (sulforhodamine B, 48 hour incubation). It counts as cell-based. The conditions noted are these: FIG. 1B; several human cancer cell lines, particularly breast (MCF7), ovarian (OVCAR-5), renal (CAKI-1), colon (SW-620). As for the experimental part: The NCI screen consists of a panel of 60 different human tumor cell lines against which compounds are tested over a defined range of concentrations to determine the relative degree of growth inhibition or cytotoxicity against each cell line. The design and operation of the screen is such that for each compound tested, both the absolute and relative sensitivities of individual cell lines comprising the screen are sufficiently reproducible that a characteristic profile or “fingerprint” of cellular response is generated. Compounds that are active in the NCI screen show pronounced differential tumor growth-inhibitory and/or cytotoxic effects to the diverse cell lines comprising the 60 cell-line panel. The degree of differential response between the most and least sensitive lines typically may be relatively small (e.g., 2-10 fold), or occasionally as great as 3-4 orders of magnitude. […]
In the screening assay, each agent is tested over a broad concentration range against every cell line in the panel. […] Test compounds are evaluated at five 10-fold dilutions. […] Optical densities are measured on automated plate readers, followed by computerized data acquisition, processing, storage, and availability for display-and analysis. […]

For data set [3] the following is noted: Akama et al., cited from earlier work.
Where [4] appears, read: pH 3, citrate buffer, read-out: Visual solubility, pH 3.
[5] abbreviates: pH 5, citrate buffer, read-out: Visual solubility, pH 5.
[6] abbreviates: pH 7, phosphate buffer, read-out: Visual solubility, pH 7.
Setting [7] is: pH 3, citrate buffer, 5 mg/mL, visual.

≈ marks a conversion by molar mass, not a printed value. Read-outs that look alike come from different tables or passages of the source.

`Br.Br.Br.Cc1c(F)c(N)c2c(=O)cc(-c3ccc(NC(=O)C(N)CCCNC(=N)N)c(F)c3)oc2c1F` (stereo not shown) [Compound 1b, 5-amino-2-[4-[[2-amino-5-guanidinopentanoyl]amino]-3-fluorophenyl]-6,8-difluoro-7-methyl-4H-1-benzopyran-4-one, trihydrobromide]: the solubility in data set [1] (setting [4]) was above 5 mg/mL; in data set [1] (setting [5]), below 5 mg/mL; in data set [1] (setting [6]), below 5 mg/mL. Also, the “solubility at pH 3 (text summary of Table 2)” value in data set [1] (setting [7]) is “fully soluble”.
Turning to `Cc1c(F)c(N)c2c(=O)cc(-c3ccc(NC(=O)[C@@H](N)CCCCN)c(F)c3)oc2c1F` [Compound 1a, 5-amino-6,8-difluoro-2-(3-fluoro-4-[(L-lysyl)amino]phenyl]-7-methyl-4H-1-benzopyran-4-one], the “tumor growth-inhibiting activity (GI50 mean-graph)” value in data set [2] was “demonstrated tumor growth-inhibiting activity”. In addition, the solubility in data set [1] (setting [4]) is above 5 mg/mL; in data set [1] (setting [5]), below 5 mg/mL; in data set [1] (setting [6]) it was below 5 mg/mL. Moreover, the “solubility at pH 3 (text summary of Table 2)” value in data set [1] (setting [7]) is on record as “fully soluble”.
Regarding `Nc1ccc(-c2cc(=O)c3c(N)c(F)cc(F)c3o2)cc1F` [5,4′-diamino-6,8,3′-trifluoroflavone], the solubility in ethanol in data set [3] (ethanol, J. Med. Chem., at 2067) is given as 1.2 mg/mL (≈ 3.92 mM). Further, the solubility in water result in data set [3] (water, J. Med. Chem., 41, 2056-2067 (1998)) is “less than 0.2 μg/mL”.
With `Cc1c(F)c(NC(=O)CN(C)C)c2c(=O)cc(-c3ccc(NC(=O)CN(C)C)c(F)c3)oc2c1F` [Compound 1d, 6,8-difluoro-7-methyl-5-(dimethylamino)acetamido-2-[4-(dimethylamino)acetamido-3-fluorophenyl]-4H-1-benzopyran-4-one], the figures for the solubility in data set [1] (setting [4]), in data set [1] (setting [5]) and in data set [1] (setting [6]) were above 5 mg/mL, above 5 mg/mL and below 5 mg/mL, respectively. For the same compound, in data set [1] (setting [7]), the “solubility at pH 3 (text summary of Table 2)” value was “fully soluble”. In addition, the “solubility at pH 5 (text summary of Table 2)” value in data set [1] (pH 5, citrate buffer, 5 mg/mL, visual) is on record as “fully soluble”.
`Cc1c(F)c(N)c2c(=O)cc(-c3ccc(NC(=O)CN(C)C)c(F)c3)oc2c1F` [Compound 1c, 5-amino-6,8-difluoro-7-methyl-2-[4-(dimethylamino)acetamido-3-fluorophenyl]-4H-1-benzopyran-4-one]: the solubility in data set [1] (setting [4]), in data set [1] (setting [5]) and in data set [1] (setting [6]) was below 5 mg/mL in each case.

These data come from US6812246B2, “Aminoflavone compounds, compositions, and methods of use thereof” (The United States of America as represented by the …, priority 2000, dated 2004).
